According to patent publication US20250186751A1, “BREATH-POWERED NASAL DEVICES FOR TREATMENT OF TRAUMATIC BRAIN INJURY (TBI), INCLUDING CONCUSSION, AND METHODS AND METHODS” (Odyssey Health, Inc., priority 2021, published 2025):

Legend:
[1] = preclinical studies of neuroprotective effects; type: in vivo; details: compared to related neurosteroids
Source text: (§1) ent-19-norprogesterone is a fully synthetic, non-naturally, occurring neurosteroid.

[2] = system: animal models of concussion; assay: animal models of concussion; type: in vivo
Source text: as §1

## CC(=O)[C@@H]1CCC2C3CCC4=CC(=O)CC[C@H]4C3CC[C@]21C (single isomer, unassigned) [ent-19-norprogesterone, ent-19-norpregn-4-ene-3,20-dione]
[1]
  neuroprotective effects: equivalent, if not superior, neuroprotective effects compared to related neurosteroids
[2]
  behavioral pathology associated with brain injury symptoms such as memory impairment, anxiety, and motor/sensory performance: reduces the behavioral pathology
